Our source for the Activity values is ChEMBL document CHEMBL4613257, “Advanced Glycation End Product Inhibition by Alkaloids from Ocotea paranapiacabensis for the Prevention of Skin Aging” (2020).

Holding throughout (format): functional
Experiment [1] concerns Zone of skin. Nature of the experiment: Anti-aging activity in reconstructed human skin assessed as dermis contraction at 150 uM by hematoxylin and eosin staining-based microscopic analysis (reference value: 57.4%).
The nature of experiment [2]: Anti-glycation activity assessed as inhibition of AGE formation at 150 uM incubated for 3 days in presence of BSA and MGO by fluorescence based assay relative to control. Details: scale not given: the % may be the effect or the level left.
The test system of experiment [3] is Zone of skin. Put plainly: Anti-aging activity in reconstructed human skin assessed as dermis contraction at 10 mM by hematoxylin and eosin staining-based microscopic analysis (reference value: 57.4%).
Experiment [4] is described as follows: Anti-glycation activity assessed as inhibition of AGE formation at 10 mM incubated for 3 days in presence of BSA and MGO by fluorescence based assay relative to control. The arrangement: scale not given: the % may be the effect or the level left.

As to `C[N+]1(C)CCc2cc(O)c(O)cc2C1Cc1ccc(O)cc1` (stereo not drawn), the Activity was 8.7% in the experiment with Zone of skin [1] and 61.5 to 63% in experiment [2]. On to `COc1cc2c(cc1O)C(Cc1ccc(O)cc1)[N+](C)(C)CC2` (stereo not drawn), for which the Activity in experiment [2] was 26.1%. Turning to `N=C(N)NN` [PIMAGEDINE], the Activity in the experiment on Zone of skin [3] is 49.7%; in experiment [4] it was 92.2%. Take `CN1CCc2cc(O)c(O)cc2C1Cc1ccc(O)cc1` (stereo not drawn): the Activity with Zone of skin [1] was found to be 4.2%; in experiment [2], 98.2%. For the compound `C[N+]1(C)C=Cc2cc(O)c(O)cc2C1Cc1ccc(O)cc1` (stereo not drawn), in experiment [2], the Activity was determined as 83.3%.
